# In PMC9995496, “A screen for MeCP2-TBL1 interaction inhibitors using a luminescence-based assay” (Scientific Reports, 2023):
# Where a name gives a salt, the structure may show the parent alone. Square brackets hold non-standard residues; d marks the D form. Peptide text beside a SMILES is read from it. * marks the point of attachment. ξ: configuration not given here. Nva = CCC[C@H](N)C(=O)O; Cbz = O=C(OCc1ccccc1)*; ξL = CC(C)CC(N)C(=O)O; ξM = CSCCC(N)C(=O)O
# System: PRKACA-PRKAR2A interaction (SmBiT-PRKACA / LgBiT-PRKAR2A), protein kinase A
# Parameters: NanoLuc complementation counter-screen in cell extract, PRKACA with PRKAR2A, loss of luminescence, detects NanoLuc interference
# Conditions: 0.5 h, 20 µM; inhibitor
row,Structure (SMILES),Inh (PKA) [%]
1,"CC(=O)Nc1ccc(OC[C@](C)(O)C(=O)Nc2ccc([N+](=O)[O-])c(C(F)(F)F)c2)cc1 [UM0141445:01, Andarine]",7.113

# Same assay, conditions: counter-screen for NanoLuc interference, 0.5 h, 20 µM, inhibitor, Inh (PKA)
row,Structure (SMILES),Inh (PKA) [%]
1,"CN1CCN(c2ccc3nc(-c4c(N)c5c(F)cccc5[nH]c4=O)[nH]c3c2)CC1 [UM0141446:01, Dovitinib (TKI-258, CHIR-258)]",5.935
2,"COc1cc2nccc(Oc3ccc(NC(=O)C4(C(=O)Nc5ccc(F)cc5)CC4)cc3)c2cc1OC [UM0141491:01, Cabozantinib (XL184, BMS-907351)]",10.46

# Same assay, conditions: counter-screen for NanoLuc interference; 0.5 h, 20 µM; inhibitor
row,Structure (SMILES),Inh (PKA) [%]
1,"CC(C)C[C@H](NC(=O)[C@H](CCc1ccccc1)NC(=O)CN1CCOCC1)C(=O)N[C@@H](Cc1ccccc1)C(=O)N[C@@H](CC(C)C)C(=O)[C@@]1(C)CO1 [UM0141433:01, Carfilzomib (PR-171)]",0.3082
2,"COC[C@H](NC(=O)c1cnc(C)s1)C(=O)N[C@@H](COC)C(=O)N[C@@H](Cc1ccccc1)C(=O)[C@@]1(C)CO1 [UM0141434:01, Oprozomib (ONX-0912)]",-0.3511
3,"Cn1cnc2c(F)c(Nc3ccc(Br)cc3F)c(C(=O)NOCCO)cc21 [UM0141435:01, MEK162 (ARRY-162, ARRY-438162)]",13.83
4,"CCN(CC)CCCC(C)Nc1nc(C)cc(Nc2ccc3nc(C)cc(N)c3c2)n1 (centres unmarked) [UM0141436:01, NSC 23766]",2.521
5,"COc1cc([C@@H]2c3cc4c(cc3[C@@H](O[C@@H]3O[C@@H]5CO[C@@H](C)O[C@H]5[C@H](O)[C@H]3O)[C@H]3COC(=O)[C@H]23)OCO4)cc(OC)c1O [UM0141437:01, Etoposide]",1.839
6,"CC(C)(C)c1cnc(CSc2cnc(NC(=O)C3CCNCC3)s2)o1 [UM0141438:01, SNS-032 (BMS-387032)]",4.184
7,"Cn1c(CCCC(=O)O)nc2cc(N(CCCl)CCCl)ccc21 [UM0141439:01, Bendamustine HCl]",-0.1879
8,"C=CC(=O)Nc1ccc2ncnc(Nc3cccc(Br)c3)c2c1 [UM0141440:01, PD168393]",22.44
9,"Cc1ccccc1-n1c(Cn2cnc3c(N)ncnc32)nc2cccc(C)c2c1=O [UM0141441:01, IC-87114]",5.733
10,"Cc1ccc([N+](=O)[O-])cc1S(=O)(=O)N(C)/N=C/c1cnc2ccc(Br)cn12 [UM0141442:01, PIK-75]",46.51
11,"CN1CCN(CCOc2cc(OC3CCOCC3)c3c(Nc4c(Cl)ccc5c4OCO5)ncnc3c2)CC1 [UM0141443:01, Saracatinib (AZD0530)]",2.374
12,"COc1cc(Nc2c(C#N)cnc3cc(OCCCN4CCN(C)CC4)c(OC)cc23)c(Cl)cc1Cl [UM0141444:01, Bosutinib (SKI-606)]",20.21
13,"O=C(NNc1nc2cc(F)ccc2n2cccc12)c1cnccn1 [UM0141448:01, SC 144]",4.683
14,"O=[N+]([O-])c1ccc2c(c1)S(=O)(=O)C=C2 [UM0141450:01, Stattic]",9.361
15,"Cc1cc(N2CCOCC2)cc2[nH]c(-c3c(NC[C@@H](O)c4cccc(Cl)c4)cc[nH]c3=O)nc12 [UM0141451:01, BMS-536924]",41.39
16,"O=S(=O)(c1ccccc1)N(CC(F)(F)F)c1ccc(C(O)(C(F)(F)F)C(F)(F)F)cc1 [UM0141452:01, T0901317]",30.09
17,"Nc1ncnc2c1c(-c1cccc(OCc3ccccc3)c1)cn2[C@H]1C[C@@H](CN2CCC2)C1 [UM0141453:01, NVP-AEW541]",10.76
18,"Cc1[nH]c(/C=C2\C(=O)Nc3ccc(S(=O)(=O)Cc4c(Cl)cccc4Cl)cc32)c(C)c1C(=O)N1CCC[C@@H]1CN1CCCC1 [UM0141454:01, PHA-665752]",72.78
19,"CNCc1cc(-c2ccccc2F)n(S(=O)(=O)c2cccnc2)c1 [UM0141455:01, TAK-438]",1.837
20,"C[C@@H]1C[C@H]2[C@@H]3CCC4=CC(=O)C=C[C@]4(C)[C@@]3(F)[C@@H](O)C[C@]2(C)[C@@]1(O)C(=O)CO [UM0141456:01, Dexamethasone (DHAP)]",0.4412
21,"COCC(=O)NC/C=C/c1ccc2ncnc(Nc3ccc(Oc4ccc(C)nc4)c(C)c3)c2c1 [UM0141457:01, CP-724714]",30.01
22,"C[C@H]1O[C@H](O[C@H]2[C@H](O)[C@@H](O)[C@@H](O[C@H]3[C@H](O)[C@@H](O)C(O)O[C@@H]3CO)O[C@@H]2CO)[C@H](O)[C@@H](O)[C@@H]1N[C@H]1C=C(CO)[C@@H](O)[C@H](O)[C@H]1O (some centres unmarked) [UM0141458:01, Acarbose]",2.661
23,"NCCC(O)(P(=O)(O)O)P(=O)(O)O [UM0141459:01, Pamidronate Disodium]",0.7087
24,"CC(=O)[C@]1(O)Cc2c(O)c3c(c(O)c2[C@@H](O[C@H]2C[C@H](N)[C@H](O)[C@H](C)O2)C1)C(=O)c1ccccc1C3=O [UM0141460:01, Idarubicin HCl]",47.84
25,"CC(C)(F)C[C@H](N[C@@H](c1ccc(-c2ccc(S(C)(=O)=O)cc2)cc1)C(F)(F)F)C(=O)NC1(C#N)CC1 [UM0141461:01, Odanacatib (MK-0822)]",3.507
26,"Nc1nc(=O)c2c([nH]1)NCC(CNc1ccc(C(=O)N[C@@H](CCC(=O)O)C(=O)O)cc1)N2C=O (some centres unmarked) [UM0141462:01, Leucovorin Calcium]",1.727
27,"CN[C@H]1C[C@@H](N)[C@H](O)[C@@H](O[C@@H]2O[C@H](CO)[C@H](O)[C@@H]3OC4(O[C@H]23)O[C@H]([C@@H](N)CO)[C@H](O)[C@H](O)[C@H]4O)[C@@H]1O (some centres unmarked) [UM0141464:01, Hygromycin B]",0.3498

row,Structure (SMILES),Inh (PKA) [%]
1,"NC[C@H]1O[C@H](O[C@H]2[C@H](O)[C@@H](O[C@H]3O[C@H](CO)[C@@H](O)[C@H](N)[C@H]3O)[C@H](N)C[C@@H]2N)[C@H](O)[C@@H](O)[C@@H]1O [UM0141465:01, Kanamycin Sulfate]",1.064
2,"Cc1ccc(Sc2ccccc2N2CCNCC2)c(C)c1 [UM0141466:01, Vortioxetine (Lu AA21004) HBr]",18.25
3,"CC(=O)N[C@@H](CC(C)C)C(=O)N[C@@H](CC(C)C)C(=O)N[C@H](C=O)CCCNC(=N)N [UM0141467:01, Leupeptin, Microbial]",0.9653
4,"CC(C)C[C@H](NC(=O)[C@@H](O)[C@H](N)Cc1ccccc1)C(=O)O [UM0141468:01, Bestatin]",1.556
5,"CNC(=O)[C@H](Cc1ccccc1)NC(=O)[C@H](CC(C)C)[C@H](CSc1cccs1)C(=O)NO [UM0141470:01, Batimastat (BB-94)]",1.977
6,"CC(C)C[C@@H](C=O)NC(=O)[C@H](CC(C)C)NC(=O)[C@H](CC(C)C)NC(=O)OCc1ccccc1 [UM0141471:01, MG-132] (Cbz-Leu-Leu-Leu-aldehyde)",6.639
7,"Cc1cc2c(F)c(Oc3ncnn4cc(OC[C@@H](C)O)c(C)c34)ccc2[nH]1 [UM0141474:01, Brivanib (BMS-540215)]",42.48
8,"CSCCC(C=O)NC(=O)C(CC(C)C)NC(=O)[C@H](CC(C)C)NC(C)=O (some centres unmarked) [UM0141476:01, Calpain Inhibitor II, ALLM] (Ac-Leu-[ξL]-[ξM]-aldehyde)",1.385
9,"CC[C@H](C)[C@H](NC(=O)[C@H]([C@@H](C)CC)N(C)C(C)=O)C(=O)N[C@H](C(=O)N[C@@H](CC(C)C)C(=O)[C@@]1(C)CO1)[C@@H](C)O [UM0141477:01, Epoxomicin]",1.438
10,"CCC[C@@H](C=O)NC(=O)[C@H](CC(C)C)NC(=O)[C@H](CC(C)C)NC(=O)OCc1ccccc1 [UM0141478:01, MG-115] (Cbz-Leu-Leu-[Nva]-aldehyde)",4.161
11,"Cc1cc2c(F)c(Oc3ncnn4cc(OC[C@@H](C)OC(=O)[C@H](C)N)c(C)c34)ccc2[nH]1 [UM0141479:01, Brivanib Alaninate (BMS-582664)]",33.56
12,"CC(C)(CO)c1cc2cc(NC(=O)C3(c4ccc5c(c4)OC(F)(F)O5)CC3)c(F)cc2n1C[C@@H](O)CO [UM0141480:01, VX-661]",12.93
13,"Cc1cc(C(C)Nc2ccccc2)c2nc(N3CCOCC3)cc(=O)n2c1 (centres unmarked) [UM0141481:01, TGX-221]",45.75
14,"Nc1nc(N)c2nc(-c3cccc(O)c3)c(-c3cccc(O)c3)nc2n1 [UM0141482:01, TG100-115]",37.25
15,"CN(C)CCN1C(=O)c2cccc3cc(N)cc(c23)C1=O [UM0141483:01, Amonafide]",12.14
16,"O=C(Nc1cccc(Nc2ncc(Br)c(NCCc3cnc[nH]3)n2)c1)N1CCCC1 [UM0141484:01, BX-912]",45.28
17,"Cc1c(NC(=O)OC[C@@H]2COCCN2)cn2ncnc(Nc3ccc4c(cnn4Cc4cccc(F)c4)c3)c12 [UM0141485:01, AC480 (BMS-599626)]",24.24
18,"O=C(Nc1ccc(OC(F)(F)F)cc1)c1sccc1NCc1ccnc2ccccc12 [UM0141486:01, OSI-930]",39.72
19,"NCC(=O)Nc1ccc(-n2nc(C(F)(F)F)cc2-c2ccc3c(ccc4ccccc43)c2)cc1 [UM0141487:01, OSU-03012 (AR-12)]",5.116
20,"NC(=O)Cc1cccc(C(=O)c2ccccc2)c1N [UM0141488:01, Nepafenac]",7.116
21,"Cc1ccc(F)c(NC(=O)Nc2ccc(-c3cccc4[nH]nc(N)c34)cc2)c1 [UM0141489:01, Linifanib (ABT-869)]",45.3
22,"COc1cc2c(Oc3ccc(NC(=O)C4(C(=O)Nc5ccc(F)cc5)CC4)cc3F)ccnc2cc1OCCCN1CCOCC1 [UM0141490:01, Foretinib (GSK1363089)]",3.567
23,"CCN(CC)C(=O)c1ccc(C2=CC3(CCNCC3)Oc3cccc(O)c32)cc1 [UM0141492:01, ADL5859 HCl]",2.676
24,"C=CC(=O)N1CCC[C@@H](n2nc(-c3ccc(Oc4ccccc4)cc3)c3c(N)ncnc32)C1 [UM0141493:01, PCI-32765 (Ibrutinib)]",23.88
25,"CC[C@H](Nc1ncnc2[nH]cnc12)c1nc2cccc(F)c2c(=O)n1-c1ccccc1 [UM0141495:01, CAL-101 (Idelalisib, GS-1101)]",7.222
26,"CC(C)NC[C@@H](C(=O)N1CCN(c2ncnc3c2[C@H](C)C[C@H]3O)CC1)c1ccc(Cl)cc1 [UM0141496:01, GDC-0068 (RG7440)]",42.22
